In US8530486B2, “Quinazolines and related heterocyclic compounds, and their therapeutic use” (Vereniging Voor Christelijk Hoger Onderwijs, …, priority 2008, dated 2013):

biological target: T1, human H4 receptor (Homo sapiens, UniProt Q9H3N8); assay: [3H]Histamine binding assay (radioligand displacement at the human H4 receptor); conditions: [3H]histamine displacement, membranes of HEK 293T cells transfected with human H4R; read-out: Activity Class* (Ki in H4 binding assay)
T1 construct: expressed in transfected cells; host or cells: HEK 293T cells, transient transfection with polyethyleneimine
T1 sequence (Q9H3N8 whole entry): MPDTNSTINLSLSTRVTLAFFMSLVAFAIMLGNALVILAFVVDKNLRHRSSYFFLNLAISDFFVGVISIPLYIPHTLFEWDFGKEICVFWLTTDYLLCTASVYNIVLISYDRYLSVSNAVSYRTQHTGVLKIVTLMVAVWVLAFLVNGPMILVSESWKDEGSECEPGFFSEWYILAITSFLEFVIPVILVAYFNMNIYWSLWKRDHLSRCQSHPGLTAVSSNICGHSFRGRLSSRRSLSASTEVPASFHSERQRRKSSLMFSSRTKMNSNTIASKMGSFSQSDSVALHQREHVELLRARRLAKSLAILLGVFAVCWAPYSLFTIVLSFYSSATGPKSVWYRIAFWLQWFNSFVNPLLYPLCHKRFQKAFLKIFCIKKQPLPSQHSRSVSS

Compound | Ki
CN1CCN(c2nc(NCCS(=O)(=O)Nc3ccc(I)cc3)c3cc(Cl)ccc3n2)CC1 [Example 8, 2-(6-chloro-2-(4-methylpiperazin-1-yl)quinazoline-4-amino)-N-(4-iodophenyl)ethanesulfonamide] | < 1000 nM
CN1CCN(c2nc(NCCS(=O)(=O)Nc3ccccc3)c3cc(Cl)c(Cl)cc3n2)CC1 [Example 12, 2-(6,7-dichloro-2-(4-methylpiperazin-1-yl)quinazoline-4-amino)-N-phenylethanesulfonamide] | < 1000 nM
CN1CCN(c2nc(NCCS(=O)(=O)Nc3ccccc3)c3cc(Cl)cc(Cl)c3n2)CC1 [Example 14] | < 1000 nM
CN1CCN(c2nc(NCCS(=O)(=O)Nc3ccccc3)c3ccc(Cl)c(Cl)c3n2)CC1 [Example 16, 2-(7,8-dichloro-2-(4-methylpiperazin-1-yl)quinazoline-4-amino)-N-phenylethanesulfonamide] | < 1000 nM
CN1CCN(c2nc(NCCS(=O)(=O)Nc3ccccc3)c3c(Cl)cc(Cl)cc3n2)CC1 [Example 17, 2-(5,7-dichloro-2-(4-methylpiperazin-1-yl)quinazoline-4-amino)-N-phenylethanesulfonamide] | < 1000 nM
